Measurements reported in ChEMBL document CHEMBL1201862, “PubChem BioAssay data set” (2004).
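Briefly, cells in 96-well plates were exposed to five compound concentrations for 48 h, and endpoints were estimated by linear interpolation. GI50 is the concentration that inhibits growth by half.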 The source made the active and inactive calls. Rule as the data show it: active = GI50 up to about 1.1 µM and inactive = higher.

Key:
Experiment in all cases: NCI-60 cell line screen, 48 h
U-251 = tested on: U-251
HT-29 = tested on: HT-29
UACC-257 = tested on: UACC-257
OVCAR-5 = tested on: OVCAR-5
UACC-62 = tested on: UACC-62
A498 = tested on: A498
Malme-3M = tested on: Malme-3M
MCF7 = tested on: MCF7
SW-620 = tested on: SW-620
KM12 = tested on: KM12
NCI-H226 = tested on: NCI-H226
K562 = tested on: K562
MDA-MB-435 = tested on: MDA-MB-435
MOLT-4 = tested on: MOLT-4
UO-31 = tested on: UO-31
Hs-578T = tested on: Hs-578T
HOP-92 = tested on: HOP-92
MDA-MB-231 = tested on: MDA-MB-231
EKVX = tested on: EKVX
SNB-75 = tested on: SNB-75

Compound	GI50 (U-251)	GI50 (HT-29)	GI50 (UACC-257)	GI50 (OVCAR-5)	GI50 (UACC-62)	GI50 (A498)	GI50 (Malme-3M)	GI50 (MCF7)	GI50 (SW-620)	GI50 (KM12)	GI50 (NCI-H226)	GI50 (K562)	GI50 (MDA-MB-435)	GI50 (MOLT-4)	GI50 (UO-31)	GI50 (Hs-578T)	GI50 (HOP-92)	GI50 (MDA-MB-231)	GI50 (EKVX)	GI50 (SNB-75)
COC(=O)Cc1c([C@H]2[C@H](CC(=O)OC)c3ccccc3N2S(=O)(=O)c2ccc(C)cc2)[nH]c2ccccc12	> 100 µM (inactive)	> 100 µM (inactive)	> 100 µM (inactive)	> 100 µM (inactive)	> 100 µM (inactive)	> 100 µM (inactive)	0.208 µM (active)	> 100 µM (inactive)	> 100 µM (inactive)	> 56.9 µM (inactive)	> 100 µM (inactive)	31.4 µM (inactive)	> 100 µM (inactive)	3.4 µM (inactive)	> 100 µM (inactive)	> 100 µM (inactive)	> 100 µM (inactive)	> 100 µM (inactive)	–	–
COc1ccc([N+](=O)[O-])c2c(NCC(O)CO)ccnc12 (stereo unspecified)	50.4 µM (inactive)	31.7 µM (inactive)	28.1 µM (inactive)	> 100 µM (inactive)	22 µM (inactive)	32.4 µM (inactive)	20.3 µM (inactive)	29 µM (inactive)	42.1 µM (inactive)	37.8 µM (inactive)	–	18.5 µM (inactive)	> 100 µM (inactive)	38.9 µM (inactive)	63.1 µM (inactive)	22.5 µM (inactive)	–	88.1 µM (inactive)	16.1 µM (inactive)	47.8 µM (inactive)
NS(=O)(=O)c1ccc(NS(=O)(=O)c2ccc(NC(=O)N(c3ccccc3)c3ccccc3)cc2)cc1	> 100 µM (inactive)	57.1 µM (inactive)	77.4 µM (inactive)	> 100 µM (inactive)	63.4 µM (inactive)	> 100 µM (inactive)	27.3 µM (inactive)	52.7 µM (inactive)	> 100 µM (inactive)	60.5 µM (inactive)	> 100 µM (inactive)	26.1 µM (inactive)	24.9 µM (inactive)	34 µM (inactive)	> 100 µM (inactive)	> 100 µM (inactive)	51.3 µM (inactive)	> 100 µM (inactive)	> 100 µM (inactive)	–
Cc1ccc(S(=O)(=O)c2c(O)c3ccc(O)c(C)c3oc2=O)cc1	> 100 µM (inactive)	> 100 µM (inactive)	> 100 µM (inactive)	> 100 µM (inactive)	> 100 µM (inactive)	–	> 100 µM (inactive)	> 100 µM (inactive)	> 100 µM (inactive)	> 100 µM (inactive)	> 100 µM (inactive)	> 100 µM (inactive)	> 100 µM (inactive)	> 100 µM (inactive)	> 100 µM (inactive)	> 100 µM (inactive)	> 100 µM (inactive)	> 100 µM (inactive)	> 100 µM (inactive)	> 100 µM (inactive)
Cc1cc(Nc2ccc(NS(C)(=O)=O)cc2)c2c(ccc3[nH]ccc32)n1	15.1 µM (inactive)	27.5 µM (inactive)	17.3 µM (inactive)	26.2 µM (inactive)	15.7 µM (inactive)	21.2 µM (inactive)	12.5 µM (inactive)	7.4 µM (inactive)	21.7 µM (inactive)	10.8 µM (inactive)	19.5 µM (inactive)	13.6 µM (inactive)	16.1 µM (inactive)	2.77 µM (inactive)	> 100 µM (inactive)	28.6 µM (inactive)	19 µM (inactive)	16.4 µM (inactive)	36 µM (inactive)	–
CC(=O)Nc1cc2cc(NS(=O)(=O)c3cc(C(F)(F)F)cc(C(F)(F)F)c3)ccc2oc1=O	28.7 µM (inactive)	> 100 µM (inactive)	> 100 µM (inactive)	> 100 µM (inactive)	> 100 µM (inactive)	> 100 µM (inactive)	> 100 µM (inactive)	> 100 µM (inactive)	> 100 µM (inactive)	> 100 µM (inactive)	> 100 µM (inactive)	> 100 µM (inactive)	> 100 µM (inactive)	> 100 µM (inactive)	> 100 µM (inactive)	> 100 µM (inactive)	> 100 µM (inactive)	> 100 µM (inactive)	> 100 µM (inactive)	–
CCCCCCCCCCCCCCCCP(=O)(O)OP(=O)(O)OCC1OC(n2cnc3c(N)ncnc32)C(O)C1O (stereo unspecified)	20 µM (inactive)	20.3 µM (inactive)	23.7 µM (inactive)	15.5 µM (inactive)	24.3 µM (inactive)	–	22.2 µM (inactive)	22.6 µM (inactive)	29 µM (inactive)	26.1 µM (inactive)	20.9 µM (inactive)	25.8 µM (inactive)	30.6 µM (inactive)	17.3 µM (inactive)	15.8 µM (inactive)	26.4 µM (inactive)	21.4 µM (inactive)	35.1 µM (inactive)	92 µM (inactive)	20.5 µM (inactive)
